This is an account of results in patent US9315475B2 (MERCK SHARP & DOHME CORP., priority 2011, dated 2016).

For the assay, the system named is HIV-1 (H9IIIB strain). Nature of the assay: Antiviral acute infection assay in cell culture (Spread). It counts as cell-based. The conditions noted are these: Human immunodeficiency virus 1, T-lymphoid, HIV-1 H9IIIB infection of MT-4 human T-lymphoid cells in 10% FBS; mean of at least two independent experiments. From the text:
Antiviral Assays in Cell Culture (“Spread”)
Acute Infection Assay (“Spread”) data were generated using HIV-1 (H9IIIB strain) infection of MT-4 human T-lymphoid cells in 10% FBS, and according to the methods disclosed by J. P. Vacca et al, “L-735,524: An orally bioavailable human immunodeficiency virus type 1 protease inhibitor,” Proc. Natl. Acad. Sci. USA, Vol. 91, pp. 4096-4100 (April 1994).
Regarding `COC(=O)N[C@H](C(=O)Nc1cccc(F)c1CC[C@@H]1CN[C@H](COC(=O)NCC(F)(F)F)CO1)[C@H](c1ccccc1)c1ccc(OC)c(Cl)c1` [Example 109, (βR)-3-Chloro-N-(3-fluoro-2-{2-[(2R,5S)-5-({[(2,2,2-trifluoroethyl)carbamoyl]oxy}methyl)morpholin-2-yl]ethyl}phenyl)-Nα-(methoxycarbonyl)-O-methyl-β-phenyl-L-tyrosinamide], the EC50 (commonly the midpoint of the concentration-response curve) was 340 nM.

`COC(=O)N[C@H](C(=O)Nc1cccc(F)c1CC[C@@H]1CN[C@H](COC(=O)NCC(F)(F)F)CO1)[C@@H](c1ccc(Cl)cc1)c1ccc2c(c1)OCO2` [Example 110, (βS)-β-1,3-Benzodioxol-5-yl-4-chloro-N-(3-fluoro-2-{2-[(2R,5S)-5-({[(2,2,2-trifluoroethyl)carbamoyl]oxy}methyl)morpholin-2-yl]ethyl}phenyl)-Nα-(methoxycarbonyl)-L-phenylalaninamide] gave an EC50 of 6.9 nM.

In turn, `COC(=O)N[C@H](C(=O)Nc1cccc(F)c1CC[C@@H]1CN[C@H](COC(=O)NCC(F)(F)F)CO1)[C@@H](c1ccc(F)cc1)c1ccccc1OC(F)(F)F` [Example 111, (βS)-4-Fluoro-N-(3-fluoro-2-{2-[(2R,5S)-5-({[(2,2,2-trifluoroethyl)carbamoyl]oxy}methyl)morpholin-2-yl]ethyl}phenyl)-Nα-(methoxycarbonyl)-β-[2-(trifluoromethoxy)phenyl]-L-phenylalaninamide] returned an EC50 of 25 nM.

In the case of `COC(=O)N[C@H](C(=O)Nc1cccc(F)c1CC[C@@H]1CN[C@H](COC(=O)NCC(F)(F)F)CO1)[C@@H](c1ccncc1)c1ccc(F)cc1` [Example 112, (βR)-4-Fluoro-N-(3-fluoro-2-{2-[(2R,5S)-5-({[(2,2,2-trifluoroethyl)carbamoyl]oxy}methyl)morpholin-2-yl]ethyl}phenyl)-Nα-(methoxycarbonyl)-β-pyridin-4-yl-L-phenylalaninamide], the response was half-maximal at 200 nM (EC50).

`CS(=O)(=O)c1ccc([C@@H](CC(=O)Nc2cccc(F)c2CC[C@@H]2CN[C@H](COC(=O)NCC(F)(F)F)CO2)c2cccc(F)c2)cc1` [Example 113, [(3S,6R)-6-{2-[2-Fluoro-6-({(3R)-3-(3-fluorophenyl)-3-[4-(methylsulfonyl)phenyl]propanoyl}amino)phenyl]ethyl}morpholin-3-yl]methyl (2,2,2-trifluoroethyl)carbamate] returned an EC50 of 320 nM.

In turn, `O=C(C[C@@H](c1ccc(Cl)cc1)c1ccc2c(c1)CCO2)Nc1cncc(F)c1CC[C@@H]1CN[C@H](COC(=O)NCC(F)(F)F)CO1` [Example 114, {(3S,6R)-6-[2-(3-{[(3S)-3-(4-Chlorophenyl)-3-(2,3-dihydro-1-benzofuran-5-yl)propanoyl]amino}-5-fluoropyridin-4-yl)ethyl]morpholin-3-yl}methyl (2,2,2-trifluoroethyl)carbamate] registered an EC50 of 14 nM.

Take `N#Cc1ccc([C@@H](CC(=O)Nc2cncc(F)c2CC[C@@H]2CN[C@H](COC(=O)NCC(F)(F)F)CO2)c2ccc(F)c(F)c2)cc1` [Example 115, {(3S,6R)-6-[2-(3-{[(3R)-3-(4-Cyanophenyl)-3-(3,4-difluorophenyl)propanoyl]amino}-5-fluoropyridin-4-yl)ethyl]morpholin-3-yl}methyl (2,2,2-trifluoroethyl)carbamate]: the EC50 came out at 30 nM.

`COC(=O)N[C@H](C(=O)Nc1cccc(F)c1OC[C@@H]1CN[C@H](COC(N)=O)CO1)[C@@H](c1ccc(F)cc1)c1cccc(F)c1` [Example 117, (βS)—N-[2-({(2S,5S)-5-[(Carbamoyloxy)methyl]morpholin-2-yl}methoxy)-3-fluorophenyl]-4-fluoro-β-(3-fluorophenyl)-Nα-(methoxycarbonyl)-L-phenylalaninamide]: the EC50 stood at 18 nM.

Consider `COC(=O)N[C@H](C(=O)Nc1cccc(F)c1CC[C@@H]1CN[C@H](COC(N)=O)CO1)[C@@H](c1ccc(F)cc1)c1cccc(F)c1` [Example 118, (βS)—N-[2-(2-{(2R,5S)-5-[(Carbamoyloxy)methyl]morpholin-2-yl}ethyl)-3-fluorophenyl]-4-fluoro-β-(3-fluorophenyl)-Nα-(methoxycarbonyl)-L-phenylalaninamide], for which the EC50 was 17 nM.

With `NC(=O)OC[C@@H]1CO[C@H](CCc2c(F)cccc2NC(=O)[C@@H](N)[C@@H](c2ccc(F)cc2)c2cccc(F)c2)CN1` [Example 120, (βS)—N-[2-(2-{(2R,5S)-5-[(Carbamoyloxy)methyl]morpholin-2-yl}ethyl)-3-fluorophenyl]-4-fluoro-β-(3-fluorophenyl)-L-phenylalaninamide], the EC50 was determined as 20 nM.

For `N[C@H](C(=O)Nc1cccc(F)c1CC[C@@H]1CN[C@H](COC(=O)N[C@H]2CCCOC2)CO1)C(c1ccc(F)cc1)c1ccc(F)cc1` [Example 122, 4-Fluoro-β-(4-fluorophenyl)-N-(3-fluoro-2-{2-[(2R,5S)-5-({[(3S)-tetrahydro-2H-pyran-3-ylcarbamoyl]oxy}methyl)morpholin-2-yl]ethyl}phenyl)-L-phenylalaninamide], the EC50 stood at 44 nM.

Compound `N[C@H](C(=O)Nc1cncc(F)c1CC[C@@H]1CN[C@H](COC(=O)NCC(F)(F)F)CO1)[C@@H](c1ccc(F)cc1)C1CCOCC1` [Example 127, (βR)-4-Fluoro-N-(5-fluoro-4-{2-[(2R,5S)-5-({[(2,2,2-trifluoroethyl)carbamoyl]oxy}methyl)morpholin-2-yl]ethyl}pyridin-3-yl)-β-(tetrahydro-2H-pyran-4-yl)-L-phenylalaninamide] gave an EC50 of 71 nM.

On to `N[C@H](C(=O)Nc1cccc(F)c1CC[C@@H]1CN[C@H](COC(=O)NCC(F)(F)F)CO1)[C@@H](c1ccc(F)cc1)C1CCOCC1` [Example 128, (βR)-4-Fluoro-N-(3-fluoro-2-{2-[(2R,5S)-5-({[(2,2,2-trifluoroethyl)carbamoyl]oxy}methyl)morpholin-2-yl]ethyl}phenyl)-β-(tetrahydro-2H-pyran-4-yl)-L-phenylalaninamide], for which it took 91 nM to reach a half-maximal effect (EC50).

Compound `O=C(C[C@@H](c1ccc(F)cc1)c1ccc(C(F)(F)F)nc1)Nc1cncc(F)c1CC[C@@H]1CN[C@H](COC(=O)NCC(F)(F)F)CO1` [Example 133, [(3S,6R)-6-{2-[3-Fluoro-5-({(3S)-3-(4-fluorophenyl)-3-[6-(trifluoromethyl)pyridin-3-yl]propanoyl}amino)pyridin-4-yl]ethyl}morpholin-3-yl]methyl (2,2,2-trifluoroethyl)carbamate] displayed an EC50 of 23 nM.

For the compound `COC(=O)N[C@H](C(=O)Nc1cccc(F)c1CC[C@@H]1CN[C@H](COC(=O)NCC(F)(F)F)CO1)[C@@H](c1ccc(Cl)cc1)c1ccncc1F` [Example 134, (βS)-4-Chloro-β-(3-fluoropyridin-4-yl)-N-(3-fluoro-2-{2-[(2R,5S)-5-({[(2,2,2-trifluoroethyl)carbamoyl]oxy}methyl)morpholin-2-yl]ethyl}phenyl)-Nα-(methoxycarbonyl)-L-phenylalaninamide], the midpoint of the response, the EC50, lay at 28 nM.

`N[C@H](C(=O)Nc1cccc(F)c1CC[C@@H]1CN[C@H](COC(=O)NCC(F)(F)F)CO1)[C@@H](c1ccc(Cl)cc1)c1ccncc1F` [Example 136, (βS)-4-Chloro-β-(3-fluoropyridin-4-yl)-N-(3-fluoro-2-{2-[(2R,5S)-5-({[(2,2,2-trifluoroethyl)carbamoyl]oxy}methyl)morpholin-2-yl]ethyl}phenyl)-L-phenylalaninamide] had an EC50 of 60 nM.

As for `COC(=O)N[C@H](C(=O)Nc1cccc(F)c1CC[C@@H]1CN[C@H](COC(=O)NCC(F)(F)F)CO1)[C@@H](c1ccc(Cl)cc1)c1cncc(F)c1` [Example 137, (βS)-4-Chloro-β-(5-fluoropyridin-3-yl)-N-(3-fluoro-2-{2-[(2R,5S)-5-({[(2,2,2-trifluoroethyl)carbamoyl]oxy}methyl)morpholin-2-yl]ethyl}phenyl)-Nα-(methoxycarbonyl)-L-phenylalaninamide], a half-maximal effect (EC50) was put at 9.8 nM.

In turn, `O=C(C[C@@H](c1ccc(F)cc1)c1ccncc1F)Nc1cccc(F)c1CC[C@@H]1CN[C@H](COC(=O)NCC(F)(F)F)CO1` [Example 138, {(3S,6R)-6-[2-(2-Fluoro-6-{[(3S)-3-(4-fluorophenyl)-3-(3-fluoropyridin-4-yl)propanoyl]amino}phenyl)ethyl]morpholin-3-yl}methyl (2,2,2-trifluoroethyl)carbamate] returned an EC50 of 31 nM.

For the compound `O=C(C[C@@H](c1ccc(F)cc1)c1cncc(C(F)(F)F)c1)Nc1cccc(F)c1CC[C@@H]1CN[C@H](COC(=O)NCC(F)(F)F)CO1` [Example 139, [(3S,6R)-6-{2-[2-Fluoro-6-({(3S)-3-(4-fluorophenyl)-3-[5-(trifluoromethyl)pyridin-3-yl]propanoyl}amino)phenyl]ethyl}morpholin-3-yl]methyl (2,2,2-trifluoroethyl)carbamate], the EC50 was found to be 108 nM.

As for `CC1(C(=O)N[C@H](C(=O)Nc2cccc(F)c2CC[C@@H]2CN[C@H](COC(=O)NCC(F)(F)F)CO2)C(c2ccc(F)cc2)c2ccc(F)cc2)CC1` [Example 142, 4-Fluoro-β-(4-fluorophenyl)-N-(3-fluoro-2-{2-[(2R,5S)-5-({[(2,2,2-trifluoroethyl)carbamoyl]oxy}methyl)morpholin-2-yl]ethyl}phenyl)-Nα-[(1-methylcyclopropyl)carbonyl]-L-phenylalaninamide], the EC50 stood at 150 nM.

`O=C(CC(F)(F)F)NC[C@@H]1CO[C@H](CCc2c(F)cncc2NC(=O)CC(c2ccc(F)cc2)c2ccc(F)cc2)CN1` [Example 143, N-({(3R,6R)-6-[2-(3-{[3,3-Bis(4-fluorophenyl)propanoyl]amino}-5-fluoropyridin-4-yl)ethyl]morpholin-3-yl}methyl)-3,3,3-trifluoropropanamide]: the EC50 came to 40 nM.

As to `O=C(CC(F)(F)F)NC[C@@H]1CO[C@H](CCc2c(F)cccc2NC(=O)CC(c2ccc(F)cc2)c2ccc(F)cc2)CN1` [Example 144, N-({(3R,6R)-6-[2-(2-{[3,3-Bis(4-fluorophenyl)propanoyl]amino}-6-fluorophenyl)ethyl]morpholin-3-yl}methyl)-3,3,3-trifluoropropanamide], the EC50 is 170 nM.
